Among the data in a melting point compilation (Tetko et al.; mined from patent text by program, amines drawn as free bases though some values may be those of a salt) are melting point values, retold here.

SMILES strings stand for the structures. A value given as a limit tells only on which side of the number the result lay.

In turn, `CCC(c1ccc(O)cc1)c1ccc(O)cc1` displayed a melting point of 131 to 133 °C.

`Cc1cc(F)c(F)c(C=O)c1O` displayed a melting point of 53 to 56 °C.

In the case of `NC(=O)c1ccccc1-c1cnn(CCN2CCCCC2)c1`, the melting point was found to be 168 °C.

The molecule `CC1(C)C=C(I)C(=O)C(C)(C)C1` returned a melting point of 41 to 42 °C.

In turn, `CNc1cccc(S(N)(=O)=O)n1` yielded a melting point of 124 to 126 °C.

`CS(=O)(=O)n1cc(C2CCN(S(=O)(=O)N3CCCC[C@@H]3C(=O)NO)CC2)c2cc(C#N)ccc21` gave a melting point of 143 to 144 °C.

On to `COC(=O)c1cncc(OC2SCC(O)C(O)C2O)c1` (stereo not given), for which the melting point amounted to 137 °C.

Molecule `CCCc1ccc(C(=O)Nc2ccc(C(=O)c3ccccc3)cc2)cc1` yielded a melting point of 119 to 122 °C.

`COc1ccc(COc2c(C)c(C)c3c(c2C)CC2(CCN(Cc4ccccc4)CC2)O3)cc1` returned a melting point of 85 to 86 °C.

Take `Cc1cc(=O)n2cccc(OCc3ccc(Cl)cc3Cl)c2n1`: the melting point was 180 to 182 °C.

`CCc1noc(-c2cn(-c3cc(Cl)ccc3OC)cn2)n1` returned a melting point of 139 to 140 °C.

On to `COc1ccc2[nH]cc(C3CCC4(CC3)OCCO4)c2c1`, for which the melting point lay in the range of 153 to 155 °C.

Regarding `O=C(Nc1cc(NC(=O)C2CCCCC2)cc(NC(=O)C2CCCCC2)c1)C1CCCCC1`, the melting point is 286 °C.

Molecule `COC(=O)[C@H](Cc1ccc(O)cc1)NC(=O)C1(NC(=O)[C@@H](SC(C)=O)C(C)C)CCCC1` displayed a melting point of 157 to 158 °C.

Consider `CCc1cccc2cc(C(C)=O)oc12`, for which the melting point was in the range of 59 to 60 °C.

`COc1ccc(-c2nc(C(=O)NCCO)c[nH]2)cc1OC1CCCC1` gave a melting point of 206 to 208 °C.

Take `CC(=O)c1cccc(NC(=O)C=C(C)Cl)c1`: the melting point worked out at 152 °C.

Turning to `CCCCOc1cc(C(=O)O)n(Cc2ccc(C(F)(F)F)cc2)n1`, the melting point is 128 to 129 °C.

The molecule `COc1cccc2cc(C(=O)c3ccc(Cl)c([N+](=O)[O-])c3)oc12` gave a melting point of 136 °C.

As to `O=[N+]([O-])c1cnc2ccc(SC(c3ccccc3)(c3ccccc3)c3ccccc3)nn12`, the melting point is 168 to 170 °C.

Molecule `O=C(O)c1ccc(S(=O)(=O)Nc2cc3c4c(c2)CCCC4CCC3)cc1` yielded a melting point of 266 to 268 °C.

Take `NC(=O)C1CCCc2ccc(-c3ccccc3)nc21` (stereo not given): the melting point was determined as 145 °C.

For the molecule `CCC(=O)Nc1cccc(NC(=O)CC(C)=O)c1`, the melting point came out at 70 °C.

For `CCc1ncc(CCCOc2c(C)cc(C#N)cc2C)s1`, the melting point fell in the range of 52 to 53 °C.

Molecule `Cc1csc2ccc3c(c4c(n3CCCN(C)C)CCNC4)c12` returned a melting point of 92 °C.

In turn, `COCN1C(C)=C(C(=O)OC)C(c2cccc(Cl)c2Cl)C(C(=O)OCOC(=O)C(C)(C)C)=C1C` (single isomer, unassigned; (+)) yielded a melting point of 149 to 150 °C.

Molecule `CC1SC(=O)NN=C1c1ccc2c(c1)CC(C)(C)C(=O)N2` (stereo not given) had a melting point of 245 °C.

`c1ccc(COc2ccc(Nc3ccn(-c4ccccc4)n3)cc2)cc1`: the melting point is 145 to 146 °C.

On to `c1cnn(Cc2ccc3c(c2)Cc2c(-c4ccsc4)n[nH]c2-3)c1`, for which the melting point lay in the range of 262 to 270 °C.

`O=C(O)c1nn(-c2ccc(Cl)cc2)c2c1[C@H]1CC[C@@H]2C1` had a melting point of 110 to 112 °C.

Consider `Cc1ccc(-n2nc(C(F)(F)F)cc2-c2ccc(S(C)(=O)=O)cc2)cc1Cl`, for which the melting point lay within 136 to 138 °C.

On to `CCC(=O)NC1c2cc3nonc3cc2OC(C)(C)C1O` (stereo not given), for which the melting point was in the range of 203 to 205 °C.

`O=c1[nH]c2c(Cl)cccc2c(=O)n1CCCN1CC=C(c2cccc(C(F)(F)F)c2)CC1`: the melting point was 205 to 210 °C.

Molecule `CCc1cc(-c2ccc(Cl)cc2)nc2c(C(=O)Nc3cccc(S(C)(=O)=O)c3)cnn12` returned a melting point of 230 to 232 °C.

`c1ccc2c(c1)Cc1ccccc1N2` gave a melting point of 170 to 171 °C.

Regarding `CCOc1cc2ncc(C#N)c(Nc3ccc4c(c3)OCO4)c2cc1OCC`, the melting point fell in the range of 200 to 203 °C.

Turning to `COC(=O)c1cc(Cl)cc2c1OCC(=O)N2`, the melting point lay within 239 to 241 °C.

`COc1cc(Br)c(OC)c(CO)c1` gave a melting point of 59 to 60 °C.

Turning to `CN(C)C(=O)Nc1ccc(NCc2ccc(Cl)cc2Cl)cc1N`, the melting point lay within 147 to 152 °C.

As to `CN1C(=O)CN(c2ccccc2)C1=S`, the melting point stood at 112 °C.

Consider `COC(=O)c1ccc(-c2cc(C)c3[nH]c(=O)ccc3c2)cc1`, for which the melting point was determined as 293 °C.

`Cc1nc2cc(Nc3nccc(-c4ccc(N5CCNCC5)nc4)n3)ccc2s1`: the melting point was in the range of 209 to 211 °C.

On to `O=CNc1nc(S)n[nH]1`, for which the melting point was 260 to 262 °C.

For the molecule `COc1ccc2sc3ccccc3c2c1`, the melting point fell in the range of 54 to 55 °C.

Consider `CN(C)C(=O)NCCCCC1CCSS1` (stereo not given), for which the melting point was 52 to 53 °C.

The molecule `Nc1ncccc1-c1nc2cc(-c3ccc(C(=O)O)o3)cnc2n1-c1ccc(CNC(=O)c2ccccc2)cc1` returned a melting point of 211 to 217 °C.

In turn, `Nc1nc(Cl)nc2c1ncn2[C@@H]1S[C@H](CO)[C@@H](O)[C@H]1O` returned a melting point of 220 to 222 °C.

Take `COC(=O)c1cc2nccnc2c(Cl)c1N`: the melting point fell in the range of 182 to 184 °C.

In turn, `N=C(N=C1NC(=O)C(=O)N1c1ccc(Cl)c(Cl)c1)Nc1ccc(Cl)c(Cl)c1` came in with a melting point of 220 °C.

`CCOC(=O)CN1C[C@@H](C(N)=O)N(CC(=O)OCC)C[C@@H]1C(N)=O`: the melting point is above 260 °C.

Regarding `O=C(O)c1cccc(-c2ccc3c(c2)C(NCc2ccc(Cl)cc2Cl)CC3)c1` (stereo not given), the melting point is 190 to 191 °C.

Consider `O=C1c2cccc(NC(=S)Nc3cc[nH]n3)c2C2CC3(CCN12)SCCS3` (stereo not given), for which the melting point was found to be 185 °C.

`O=C1CC(ON(Cc2ccccc2)Cc2ccccc2)C(=O)N1C1CCCCC1` (stereo not given) registered a melting point of 75 to 77 °C.

In turn, `COc1nc2cc(C)c(Cl)c(N)c2nc1OC` yielded a melting point of 169 to 170 °C.

As for `CCCOc1cc(OC)c2c(c1)C(=O)c1cccc(OCCN(CC)CC)c1-2`, the melting point fell in the range of 127 to 129 °C.

The molecule `COCc1ccc(-c2csc(-c3ccncc3)n2)c(=O)[nH]1` registered a melting point of 249 to 254 °C.

On to `O=c1[nH]c2c3ccccc3ccc2n(CC2CC2)c1=O`, for which the melting point came out at 292 °C.

On to `Cc1cccc(NC(=O)OCC2CCCCN2C)c1` (stereo not given), for which the melting point was in the range of 73.5 to 75.5 °C.

The molecule `O=C(Nc1ccccc1)C1=NOCCS1(=O)=O` showed a melting point of 206 to 207 °C.

Consider `CCOc1ccc(-c2ccc(C#N)cc2)cc1C=O`, for which the melting point was in the range of 110 to 121 °C.

For the molecule `C1=C(c2ccccc2)CC(CN2CCN(c3ccccn3)CC2)CC1` (stereo not given), the melting point fell in the range of 96 to 98 °C.

In turn, `Cn1nc(C(F)F)c(CS(=O)(=O)C2=NOC(C)(C)C2)c1Cl` had a melting point of 78 to 79 °C.

`CCOc1nn(Cc2ccc(OCc3cccnc3)c(OC)c2)cc1CCC(=O)O` yielded a melting point of 124 to 125 °C.

`NC(=O)N(O)CCNS(=O)(=O)c1ccc2ccccc2c1` gave a melting point of 174 °C.

Molecule `NC(=O)c1nc(-c2ccc3nc[nH]c3c2)nc2c1[nH]c(=O)n2-c1ccccc1F` registered a melting point of 278 °C.

The molecule `COCc1cn(-c2cccc(C(F)(F)F)c2)nc(C(C)=O)c1=O` had a melting point of 141 to 143 °C.

Regarding `COc1cc(CCCC2SC(=O)NC2=O)ccc1OCc1csc(CCc2ccccc2)n1` (stereo not given), the melting point lay in the range of 104 to 105 °C.

The molecule `O=C(O)C1Cc2[nH]c3ccc(OCc4ccccc4)cc3c2C1` (stereo not given) yielded a melting point of 161 to 163 °C.

`COc1ccc(C(F)(F)F)cc1NC(=O)Nc1ccc(-c2c(C(N)=O)[nH]c3ccccc23)cc1` had a melting point of 178 to 180 °C.

As to `CCOC(=O)c1cnn(-c2ccc3ccccc3n2)c1S(N)(=O)=O`, the melting point was in the range of 140 to 141 °C.

As to `Cc1noc(NC(=O)N2CCN(c3ccnc(-c4cccc(F)c4F)n3)CC2)c1C`, the melting point fell in the range of 209 to 210 °C.

`CS(=O)(=O)c1ccc(/C(=C2\CCN(CCC(=O)O)C2=O)c2ccc(Cl)cc2)cc1` registered a melting point of 178 to 179 °C.

As for `COc1ccc(C(=O)Nc2ccccc2)cc1NC(=S)Nc1cc(C(F)(F)F)cc(C(F)(F)F)c1`, the melting point lay within 192 to 193 °C.

Molecule `CCc1nc2c(C)cc(C)nc2n1Cc1ccc2c(c1)c1ccccc1n2CCC#N` gave a melting point of 180 to 181 °C.

The molecule `Cc1cccc(Cl)c1NS(=O)(=O)c1n[nH]c(NC=O)n1` showed a melting point of 291 to 300 °C.

`CN1C(C(=O)Nc2ccccn2)=C(OC2OC(=O)c3ccccc32)c2ccccc2S1(=O)=O` (stereo not given) yielded a melting point of 151 to 152 °C.

In turn, `CC(=O)Nc1ccc(OC2SCC(O)C(O)C2O)cn1` (stereo not given) had a melting point of 209 °C.

`CCN1C[C@@H](O)[C@H](Sc2ccccc2Cl)C1` (relative stereo) came in with a melting point of 90.5 to 92.5 °C.

Regarding `CCOC(=O)C(=NO)c1csc(C)n1`, the melting point lay within 90 to 92 °C.

Molecule `CCCCc1[nH]c2ccc([N+](=O)[O-])cc2c1C(=O)c1ccc(OCCCN(CCCC)CCCC)cc1` had a melting point of 116 °C.

In the case of `CC(Oc1ccc2nc(NC(=O)NCCN3CCC(Cc4ccccc4)CC3)sc2c1)c1c(Cl)ccc(F)c1Cl` (stereo not given), the melting point was 133 to 139 °C.

Take `Cc1nnc(-c2ccc3occ(-c4ccc(C#N)cc4)c3c2)o1`: the melting point lay in the range of 201 to 202 °C.

Turning to `CC(C)OCC1(C(C)(F)F)c2cc(C#N)ccc2Nc2ncc(Cl)cc21` (stereo not given), the melting point was 79 to 81 °C.

As to `O=C(N[C@@H](Cc1c[nH]c2ccccc12)C(=O)O)c1ccccc1`, the melting point fell in the range of 84 to 86 °C.

For the molecule `CC(=O)N(C)C12CCCCC1Oc1ccccc12` (stereo not given), the melting point is 138 to 139 °C.

In the case of `COc1cc(NC(=C(C#N)S(C)(=O)=O)C(C)C)cc(OC)c1`, the melting point was 135 to 136 °C.

Consider `O=C(CCCN1CCN(c2nc3nccc(-c4ccncc4)n3n2)CC1)c1ccc(F)cc1`, for which the melting point was 133 to 135 °C.

`CCOC(=O)c1nc(-c2ccc(F)cc2)c(-c2ccc(=O)n(C(C)C)n2)s1` displayed a melting point of 193 to 194 °C.

`FC(F)(F)c1cc2[nH]c(N3CCN(c4ncccc4C(F)(F)F)CC3)nc2cc1Cl` returned a melting point of 206 to 208 °C.

`CCc1cccc(C)c1CNc1cc(C(=O)N2CCOCC2)cc2c1nc(C)n2C`: the melting point is 229 to 231 °C.
